{"source": "patent US10251395B2", "about": "“Substituted furano-/thienocycloalkylamino-2-pyrimidine derivatives and use thereof for controlling undesired plant growth” (Bayer CropScience Aktiengesellschaft, priority 2015, dated 2019)", "key": {"Cyperus esculentus": {"tested_on": "Cyperus esculentus", "assay": "Pre-emergence herbicidal effect", "type": "in vivo", "settings": "Dosage 320 g/ha, scored visually after 3 weeks", "outline": "(§1)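 Pre-em soil-surface spray; sandy loam, seeds covered with soil. WP/EC, aq. suspension/emulsion, 600–800 L/ha, +0.2% wetting agent. GH 3 wk; visual % activity vs untreated (100% = dead).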"}, "Matricaria inodora [1]": {"tested_on": "Matricaria inodora", "assay": "Pre-emergence herbicidal effect", "type": "in vivo", "settings": "scored visually after 3 weeks", "outline": "as §1"}, "Polygonum convolvulus": {"tested_on": "Polygonum convolvulus", "assay": "Pre-emergence herbicidal effect", "type": "in vivo", "settings": "scored visually after 3 weeks", "outline": "as §1"}, "Viola tricolor [2]": {"tested_on": "Viola tricolor", "assay": "Pre-emergence herbicidal effect", "type": "in vivo", "settings": "Dosage 320 g/ha, scored visually after 3 weeks", "outline": "as §1"}, "logP (HCOOH)": {"assay": "logP (HCOOH)", "type": "physicochemical", "settings": "HCOOH", "excerpt": "Table 2 (physicochemical characterization of selected synthesis examples)"}, "Echinochloa crus-galli [3]": {"tested_on": "Echinochloa crus-galli", "assay": "Post-emergence herbicidal effect", "type": "in vivo", "settings": "320 g/ha, assessed visually after about 3 weeks vs untreated controls", "outline": "(§2)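 Sow in sandy loam; grow in greenhouse 2–3 wk; spray one-leaf plants with WP or EC suspension/emulsion (600–800 L/ha water, 0.2% wetter); hold ~3 wk under optimal conditions; rate visually vs untreated (0–100%).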"}, "Matricaria inodora [4]": {"tested_on": "Matricaria inodora", "assay": "Post-emergence herbicidal effect", "type": "in vivo", "settings": "assessed visually after about 3 weeks vs untreated controls", "outline": "as §2"}, "Amaranthus retroflexus [5]": {"tested_on": "Amaranthus retroflexus", "assay": "Post-emergence herbicidal effect", "type": "in vivo", "settings": "320 g/ha, assessed visually after about 3 weeks vs untreated controls", "outline": "as §2"}, "Stellaria media [6]": {"tested_on": "Stellaria media", "assay": "Post-emergence herbicidal effect", "type": "in vivo", "settings": "assessed visually after about 3 weeks vs untreated controls", "outline": "as §2"}, "Viola tricolor [7]": {"tested_on": "Viola tricolor", "assay": "Post-emergence herbicidal effect", "type": "in vivo", "settings": "320 g/ha, assessed visually after about 3 weeks vs untreated controls", "outline": "as §2"}, "Veronica persica [8]": {"tested_on": "Veronica persica", "assay": "Post-emergence herbicidal effect", "type": "in vivo", "settings": "assessed visually after about 3 weeks vs untreated controls", "outline": "as §2"}, "Alopecurus myosuroides": {"tested_on": "Alopecurus myosuroides", "assay": "Pre-emergence herbicidal effect", "type": "in vivo", "settings": "scored visually after 3 weeks", "outline": "as §1"}, "Echinochloa crus-galli [9]": {"tested_on": "Echinochloa crus-galli", "assay": "Pre-emergence herbicidal effect", "type": "in vivo", "settings": "scored visually after 3 weeks", "outline": "as §1"}, "Setaria viridis": {"tested_on": "Setaria viridis", "assay": "Pre-emergence herbicidal effect", "type": "in vivo", "settings": "scored visually after 3 weeks", "outline": "as §1"}, "Amaranthus retroflexus [10]": {"tested_on": "Amaranthus retroflexus", "assay": "Pre-emergence herbicidal effect", "type": "in vivo", "settings": "scored visually after 3 weeks", "outline": "as §1"}, "Stellaria media [11]": {"tested_on": "Stellaria media", "assay": "Pre-emergence herbicidal effect", "type": "in vivo", "settings": "scored visually after 3 weeks", "outline": "as §1"}, "Veronica persica [12]": {"tested_on": "Veronica persica", "assay": "Pre-emergence herbicidal effect", "type": "in vivo", "settings": "scored visually after 3 weeks", "outline": "as §1"}, "Lolium multiflorum": {"tested_on": "Lolium multiflorum", "assay": "Pre-emergence herbicidal effect", "type": "in vivo", "settings": "Dosage 320 g/ha, scored visually after 3 weeks", "outline": "as §1"}}, "data": [{"smiles": "Cc1cc2c(s1)CCCC2Nc1nc(N)c(Br)c(C(C)(C)F)n1", "note": "(racemic) [compound 307]", "values": [{"measurement": "CYPES pre-emergence efficacy (herbicidal activity)", "setting": "Cyperus esculentus", "result": 60, "unit": "%"}, {"measurement": "MATIN pre-emergence efficacy (herbicidal activity)", "setting": "Matricaria inodora [1]; Dosage 320 g/ha", "result": 50, "unit": "%"}, {"measurement": "POLCO pre-emergence efficacy (herbicidal activity)", "setting": "Polygonum convolvulus; Dosage 320 g/ha", "result": 70, "unit": "%"}, {"measurement": "VIOTR pre-emergence efficacy (herbicidal activity)", "setting": "Viola tricolor [2]", "result": 100, "unit": "%"}]}, {"smiles": "O=S1(=O)CCCc2nc(N[C@@H]3CCCc4sccc43)ncc21", "note": "[compound 73]", "values": [{"measurement": "logP (HCOOH)", "setting": "logP (HCOOH)", "result": "oily; logP (HCOOH): 2.38;"}, {"measurement": "post-emergence efficacy ECHCG", "setting": "Echinochloa crus-galli [3]", "result": 100, "unit": "%"}, {"measurement": "post-emergence efficacy MATIN", "setting": "Matricaria inodora [4]; 80 g/ha", "result": 100, "unit": "%"}, {"measurement": "post-emergence efficacy MATIN", "setting": "Matricaria inodora [4]; 320 g/ha", "result": 100, "unit": "%"}, {"measurement": "post-emergence efficacy AMARE", "setting": "Amaranthus retroflexus [5]", "result": 80, "unit": "%"}, {"measurement": "post-emergence efficacy STEME", "setting": "Stellaria media [6]; 80 g/ha", "result": 90, "unit": "%"}, {"measurement": "post-emergence efficacy STEME", "setting": "Stellaria media [6]; 320 g/ha", "result": 100, "unit": "%"}, {"measurement": "post-emergence efficacy VIOTR", "setting": "Viola tricolor [7]", "result": 60, "unit": "%"}, {"measurement": "post-emergence efficacy VERPE", "setting": "Veronica persica [8]; 80 g/ha", "result": 80, "unit": "%"}, {"measurement": "post-emergence efficacy VERPE", "setting": "Veronica persica [8]; 320 g/ha", "result": 100, "unit": "%"}, {"measurement": "ALOMY pre-emergence efficacy (herbicidal activity)", "setting": "Alopecurus myosuroides; Dosage 80 g/ha", "result": 80, "unit": "%"}, {"measurement": "ALOMY pre-emergence efficacy (herbicidal activity)", "setting": "Alopecurus myosuroides; Dosage 320 g/ha", "result": 90, "unit": "%"}, {"measurement": "ECHCG pre-emergence efficacy (herbicidal activity)", "setting": "Echinochloa crus-galli [9]; Dosage 80 g/ha", "result": 100, "unit": "%"}, {"measurement": "ECHCG pre-emergence efficacy (herbicidal activity)", "setting": "Echinochloa crus-galli [9]; Dosage 320 g/ha", "result": 100, "unit": "%"}, {"measurement": "CYPES pre-emergence efficacy (herbicidal activity)", "setting": "Cyperus esculentus", "result": 100, "unit": "%"}, {"measurement": "MATIN pre-emergence efficacy (herbicidal activity)", "setting": "Matricaria inodora [1]; Dosage 80 g/ha", "result": 100, "unit": "%"}, {"measurement": "MATIN pre-emergence efficacy (herbicidal activity)", "setting": "Matricaria inodora [1]; Dosage 320 g/ha", "result": 100, "unit": "%"}, {"measurement": "POLCO pre-emergence efficacy (herbicidal activity)", "setting": "Polygonum convolvulus; Dosage 80 g/ha", "result": 100, "unit": "%"}, {"measurement": "POLCO pre-emergence efficacy (herbicidal activity)", "setting": "Polygonum convolvulus; Dosage 320 g/ha", "result": 100, "unit": "%"}, {"measurement": "SETVI pre-emergence efficacy (herbicidal activity)", "setting": "Setaria viridis; Dosage 80 g/ha", "result": 80, "unit": "%"}, {"measurement": "SETVI pre-emergence efficacy (herbicidal activity)", "setting": "Setaria viridis; Dosage 320 g/ha", "result": 100, "unit": "%"}, {"measurement": "AMARE pre-emergence efficacy (herbicidal activity)", "setting": "Amaranthus retroflexus [10]; Dosage 80 g/ha", "result": 100, "unit": "%"}, {"measurement": "AMARE pre-emergence efficacy (herbicidal activity)", "setting": "Amaranthus retroflexus [10]; Dosage 320 g/ha", "result": 100, "unit": "%"}, {"measurement": "STEME pre-emergence efficacy (herbicidal activity)", "setting": "Stellaria media [11]; Dosage 80 g/ha", "result": 100, "unit": "%"}, {"measurement": "STEME pre-emergence efficacy (herbicidal activity)", "setting": "Stellaria media [11]; Dosage 320 g/ha", "result": 100, "unit": "%"}, {"measurement": "VIOTR pre-emergence efficacy (herbicidal activity)", "setting": "Viola tricolor [2]", "result": 100, "unit": "%"}, {"measurement": "VERPE pre-emergence efficacy (herbicidal activity)", "setting": "Veronica persica [12]; Dosage 80 g/ha", "result": 100, "unit": "%"}, {"measurement": "VERPE pre-emergence efficacy (herbicidal activity)", "setting": "Veronica persica [12]; Dosage 320 g/ha", "result": 100, "unit": "%"}, {"measurement": "LOLMU pre-emergence efficacy (herbicidal activity)", "setting": "Lolium multiflorum", "result": 100, "unit": "%"}]}]}
